Converted amounts (≈) assume the structure as drawn.
System: GAS
Conditions: tested with GAS

**Q.** `CC[C@H](C)[C@H](NC(=O)[C@H](CCCCN)NC(=O)[C@H](CCC(=O)O)NC(=O)[C@H](CCCCN)NC(=O)[C@H](CO)NC(=O)[C@H](CCCCN)NC(=O)[C@H](CCCNC(=N)N)NC(=O)[C@H](Cc1ccccc1)NC(=O)[C@H](Cc1ccccc1)NC(=O)[C@H](CC(=O)O)NC(=O)CNC(=O)[C@H](CC(C)C)NC(=O)[C@@H](N)CC(C)C)C(=O)NCC(=O)N[C@@H](CCCCN)C(=O)N[C@@H](CCC(=O)O)C(=O)N[C@@H](Cc1ccccc1)C(=O)N[C@@H](CCCCN)C(=O)N[C@@H](CCCNC(=N)N)C(=O)N[C@H](C(=O)N[C@H](C(=O)N[C@@H](CCC(N)=O)C(=O)N[C@@H](CCCNC(=N)N)C(=O)N[C@H](C(=O)N[C@@H](CCCCN)C(=O)N[C@@H](CC(=O)O)C(=O)N[C@@H](Cc1ccccc1)C(=O)N[C@@H](CC(C)C)C(=O)N[C@@H](CCCNC(=N)N)C(=O)N[C@@H](CC(N)=O)C(=O)N[C@@H](CC(C)C)C(=O)N[C@H](C(=O)N1CCC[C@H]1C(=O)N[C@@H](CCCNC(=N)N)C(=O)N[C@H](C(=O)N[C@@H](CCC(=O)O)C(=O)N[C@@H](CO)C(=O)O)[C@@H](C)O)C(C)C)[C@@H](C)CC)C(C)C)[C@@H](C)CC` [Synthetic LL-37 peptide] was tested. Which MBC did it give?
**A.** 16 µM (≈ 71.9 µg/mL)

**Q.** And the MIC?
**A.** 16 µM (≈ 71.9 µg/mL)

From patent US12447188B2, “Compositions and methods for the antiseptic treatment of biofilms on mammalian tissue” (Avadim Health IP, Inc., priority 2019, dated 2025)
